This experiment addresses human PD-L1 (Homo sapiens (Human), UniProt Q9NZQ7). As to the kind of experiment: T cell activation luciferase reporter cell culture system (T Cell Activation Assay). It counts as cell-based. The note with it: luciferase reporter assay; PD-L1 aAPC/CHO-K1 cells with PD-1 effector Jurkat T cells.

The term EC50 denotes the concentration at which the effect is half-maximal. Lower therefore signals a more potent agent.

human PD-L1, sequence (Q9NZQ7 19-290): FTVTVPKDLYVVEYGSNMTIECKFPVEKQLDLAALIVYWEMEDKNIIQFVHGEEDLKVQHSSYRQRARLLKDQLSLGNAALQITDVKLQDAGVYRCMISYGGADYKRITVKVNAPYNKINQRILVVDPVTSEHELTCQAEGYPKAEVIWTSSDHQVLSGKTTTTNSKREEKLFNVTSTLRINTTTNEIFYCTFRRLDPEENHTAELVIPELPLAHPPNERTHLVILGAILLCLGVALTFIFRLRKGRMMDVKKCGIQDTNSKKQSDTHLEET

Regarding `COc1cc(-c2nccc(-c3cccc(-c4ccc5c(CN(C)C6CCN(C(C)=O)CC6)cn(C)c5n4)c3Cl)c2Cl)ccc1CNC[C@@H]1CCC(=O)N1` [Cmpd 92, (S)-5-(((4-(4-(3-(3-(((1-acetylpiperidin-4-yl)(methyl)amino)methyl)-1-methyl-1H-pyrrolo[2,3-b]pyridin-6-yl)-2-chlorophenyl)-3-chloropyridin-2-yl)-2-methoxybenzyl)amino)methyl)pyrrolidin-2-one], the EC50 came out at 0.0101 µM. `COc1cc(-c2nccc(-c3cccc(-c4ccc5c(CNC[C@@H]6CCCO6)cn(C)c5n4)c3Cl)c2Cl)ccc1CNC[C@@H]1CCC(=O)N1` [Cmpd 93, (S)-5-(((4-(3-chloro-4-(2-chloro-3-(1-methyl-3-(((((S)-tetrahydrofuran-2-yl)methyl)amino)methyl)-1H-pyrrolo[2,3-b]pyridin-6-yl)phenyl)pyridin-2-yl)-2-methoxybenzyl)amino)methyl)pyrrolidin-2-one] registered a concentration giving a half-maximal response (EC50) of 0.0442 µM.

Molecule `COc1nc(-c2cccc(-c3ccnc(-c4cc5c(=O)n(C)c(CNC6CC(C)(O)C6)nn5c4)c3Cl)c2Cl)ccc1CNC[C@@H]1CCC(=O)N1` (stereo partly drawn) [Cmpd 102, (S)-6-(3-chloro-4-(2-chloro-3-(6-methoxy-5-((((5-oxopyrrolidin-2-yl)methyl)amino)methyl)pyridin-2-yl)phenyl)pyridin-2-yl)-2-(((3-hydroxy-3-methylcyclobutyl)amino)methyl)-3-methylpyrrolo[2,1-f][1,2,4]triazin-4(3H)-one] displayed an EC50 of 0.342 µM. Turning to `COc1cc(-c2nccc(-c3cccc(-c4cc(Cl)c(CNC[C@@H]5CCC(=O)N5)c(OC)n4)c3Cl)c2Cl)cc2c1CN(C[C@@H](C)O)CC2` [Cmpd 104, (S)-5-((((4-chloro-6-(2-chloro-3-(3-chloro-2-(2-((R)-2-hydroxypropyl)-8-methoxy-1,2,3,4-tetrahydroisoquinolin-6-yl)pyridin-4-yl)phenyl)-2-methoxypyridin-3-yl)methyl)amino)methyl)pyrrolidin-2-one], the concentration for a half-maximal effect (EC50) worked out at 0.0307 µM. To `COc1cc(-c2nccc(-c3cccc(-c4cc(Cl)c(CNC[C@@H]5CCC(=O)N5)c(OC)n4)c3Cl)c2Cl)ccc1CNCC(=O)O` [Cmpd 105, (S)-(4-(3-chloro-4-(2-chloro-3-(4-chloro-6-methoxy-5-((((5-oxopyrrolidin-2-yl)methyl)amino)methyl)pyridin-2-yl)phenyl)pyridin-2-yl)-2-methoxybenzyl)glycine] belongs 0.191 µM. To `COc1cc(-c2nccc(-c3cccc(-c4ccc(CNC[C@@H]5CCC(=O)N5)c(OC)n4)c3Cl)c2Cl)ccc1CNCC(=O)O` [Cmpd 107, (S)-(4-(3-chloro-4-(2-chloro-3-(6-methoxy-5-((((5-oxopyrrolidin-2-yl)methyl)amino)methyl)pyridin-2-yl)phenyl)pyridin-2-yl)-2-methoxybenzyl)glycine] belongs 0.253 µM; to `COc1cc(-c2nccc(-c3cccc(-c4ccc(CNC[C@@H]5CCC(=O)N5)c(OC)n4)c3Cl)c2Cl)ccc1CNCC(=O)OC(C)C` [Cmpd 108, isopropyl (S)-(4-(3-chloro-4-(2-chloro-3-(6-methoxy-5-((((5-oxopyrrolidin-2-yl)methyl)amino)methyl)pyridin-2-yl)phenyl)pyridin-2-yl)-2-methoxybenzyl)glycinate], 0.14 µM. For the molecule `COc1cc(-c2nccc(-c3cccc(-c4ccc(CNC[C@@H]5CCC(=O)N5)c(OC)n4)c3Cl)c2Cl)ccc1CNC1CCN(C(C)=O)CC1` [Cmpd 109, (S)-5-((((6-(3-(2-(4-(((1-acetylpiperidin-4-yl)amino)methyl)-3-methoxyphenyl)-3-chloropyridin-4-yl)-2-chlorophenyl)-2-methoxypyridin-3-yl)methyl)amino)methyl)pyrrolidin-2-one], the EC50 was found to be 0.0279 µM.

For `COc1nc(-c2cccc(-c3ccnc(-c4cnn(C5CNC5)c4)c3Cl)c2Cl)ccc1CNC[C@@H]1CCC(=O)N1` [Cmpd 119, (S)-5-((((6-(3-(2-(1-(azetidin-3-yl)-1H-pyrazol-4-yl)-3-chloropyridin-4-yl)-2-chlorophenyl)-2-methoxypyridin-3-yl)methyl)amino)methyl)pyrrolidin-2-one], the EC50 was found to be 0.37 µM. `COc1nc(-c2cccc(-c3ccnc(-c4cnn(CC5CNC5)c4)c3Cl)c2Cl)ccc1CNC[C@@H]1CCC(=O)N1` [Cmpd 120, (S)-5-((((6-(3-(2-(1-(azetidin-3-ylmethyl)-1H-pyrazol-4-yl)-3-chloropyridin-4-yl)-2-chlorophenyl)-2-methoxypyridin-3-yl)methyl)amino)methyl)pyrrolidin-2-one] returned a 50% effective concentration (EC50) of 0.972 µM. Next, `COc1cc(-c2nccc(-c3cccc(-c4ccc(CNC[C@@H]5CCC(=O)N5)c(OC)n4)c3Cl)c2Cl)ccc1CNC1(C(=O)O)CC1` [Cmpd 121, (S)-1-((4-(3-chloro-4-(2-chloro-3-(6-methoxy-5-((((5-oxopyrrolidin-2-yl)methyl)amino)methyl)pyridin-2-yl)phenyl)pyridin-2-yl)-2-methoxybenzyl)amino)cyclopropane-1-carboxylic acid]: 0.131 µM; `COc1cc(-c2nccc(-c3cccc(-c4ccc(CNC[C@@H]5CCC(=O)N5)c(OC)n4)c3Cl)c2Cl)ccc1CNC[C@@H]1CCO1` [Cmpd 122, (S)-5-((((6-(2-chloro-3-(3-chloro-2-(3-methoxy-4-(((((S)-oxetan-2-yl)methyl)amino)methyl)phenyl)pyridin-4-yl)phenyl)-2-methoxypyridin-3-yl)methyl)amino)methyl)pyrrolidin-2-one]: 0.0557 µM. In turn, `COc1cc(-c2nccc(-c3cccc(-c4cc(Cl)c(CNC[C@@H]5CCC(=O)N5)c(OC)n4)c3Cl)c2Cl)ccc1CNCC(=O)OC(C)C` [Cmpd 123, isopropyl (S)-(4-(3-chloro-4-(2-chloro-3-(4-chloro-6-methoxy-5-((((5-oxopyrrolidin-2-yl)methyl)amino)methyl)pyridin-2-yl)phenyl)pyridin-2-yl)-2-methoxybenzyl)glycinate] registered an EC50 of 0.129 µM. Consider `COc1cc(-c2nccc(-c3cccc(-c4cc(Cl)c(CNC[C@@H]5CCC(=O)N5)c(OC)n4)c3Cl)c2Cl)cc2c1CN(CCO)CC2` [Cmpd 124, (S)-5-((((4-chloro-6-(2-chloro-3-(3-chloro-2-(2-(2-hydroxyethyl)-8-methoxy-1,2,3,4-tetrahydroisoquinolin-6-yl)pyridin-4-yl)phenyl)-2-methoxypyridin-3-yl)methyl)amino)methyl)pyrrolidin-2-one], for which the EC50 was 0.0363 µM. Consider `COc1cc(-c2nccc(-c3cccc(-c4ccc(CNC[C@@H]5CCC(=O)N5)c(OC)n4)c3Cl)c2Cl)ccc1CN[C@@H](C)C(=O)OC(C)C` [Cmpd 125, isopropyl (4-(3-chloro-4-(2-chloro-3-(6-methoxy-5-(((((S)-5-oxopyrrolidin-2-yl)methyl)amino)methyl)pyridin-2-yl)phenyl)pyridin-2-yl)-2-methoxybenzyl)-L-alaninate], for which the EC50 was determined as 0.361 µM. Next, `COc1cc(-c2nccc(-c3cccc(-c4ccc(CNC[C@@H]5CCC(=O)N5)c(OC)n4)c3Cl)c2Cl)ccc1CNC1CCS(=O)(=O)CC1` [Cmpd 126, (S)-5-((((6-(2-chloro-3-(3-chloro-2-(4-(((1,1-dioxidotetrahydro-2H-thiopyran-4-yl)amino)methyl)-3-methoxyphenyl)pyridin-4-yl)phenyl)-2-methoxypyridin-3-yl)methyl)amino)methyl)pyrrolidin-2-one]: 0.0368 µM; `COc1cc(-c2nccc(-c3cccc(-c4ccc(CNC[C@@H]5CCC(=O)N5)c(OC)n4)c3Cl)c2Cl)ccc1CNC1CCOCC1` [Cmpd 127, (S)-5-((((6-(2-chloro-3-(3-chloro-2-(3-methoxy-4-(((tetrahydro-2H-pyran-4-yl)amino)methyl)phenyl)pyridin-4-yl)phenyl)-2-methoxypyridin-3-yl)methyl)amino)methyl)pyrrolidin-2-one]: 0.0335 µM. In turn, `COc1cc(-c2nccc(-c3cccc(-c4ccc(CNC[C@@H]5CCC(=O)N5)c(OC)n4)c3Cl)c2Cl)cc2c1CN(C[C@H]1C[C@H](O)C1)CC2` [Cmpd 133] came in with an EC50 of 0.0214 µM. Next, `COc1cc(-c2nccc(-c3cccc(-c4ccc(CNC[C@@H]5CCC(=O)N5)c(OC)n4)c3Cl)c2Cl)cc2c1CN(C[C@H]1C[C@@H](O)C1)CC2` [Cmpd 134]: 0.023 µM; `COc1cc(-c2nccc(-c3cccc(-c4ccc(CN(C)C)c(OC)n4)c3Cl)c2Cl)ccc1CN(C)C` [Cmpd 137, 1-(6-(2-chloro-3-(3-chloro-2-(4-((dimethylamino)methyl)-3-methoxyphenyl)pyridin-4-yl)phenyl)-2-methoxypyridin-3-yl)-N,N-dimethylmethanamine]: 0.0843 µM; `COc1cc(-c2nccc(-c3cccc(-c4ccc(CN(C)CCO)c(OC)n4)c3Cl)c2Cl)ccc1CN(C)CCO` [Cmpd 138, 2-(((6-(2-chloro-3-(3-chloro-2-(4-(((2-hydroxyethyl)(methyl)amino)methyl)-3-methoxyphenyl)pyridin-4-yl)phenyl)-2-methoxypyridin-3-yl)methyl)(methyl)amino)ethan-1-ol]: 5.16 µM.

On to `COc1cc(-c2nccc(-c3cccc(-c4ccc(CNC5CCN(C(C)=O)CC5)c(OC)n4)c3Cl)c2Cl)ccc1CNC1CCN(C(C)=O)CC1` [Cmpd 139, 1-(4-(((6-(3-(2-(4-(((1-acetylpiperidin-4-yl)amino)methyl)-3-methoxyphenyl)-3-chloropyridin-4-yl)-2-chlorophenyl)-2-methoxypyridin-3-yl)methyl)amino)piperidin-1-yl)ethan-1-one], for which it took 0.0129 µM to reach a half-maximal effect (EC50). Molecule `COc1cc(-c2nccc(-c3cccc(-c4ccc(CN(C)C5CCN(C(C)=O)CC5)c(OC)n4)c3Cl)c2Cl)ccc1CN(C)C1CCN(C(C)=O)CC1` [Cmpd 140, 1-(4-(((6-(3-(2-(4-(((1-acetylpiperidin-4-yl)(methyl)amino)methyl)-3-methoxyphenyl)-3-chloropyridin-4-yl)-2-chlorophenyl)-2-methoxypyridin-3-yl)methyl)(methyl)amino)piperidin-1-yl)ethan-1-one] gave an EC50 of at least 10 µM.

For the molecule `COC(=O)CN1CCc2cc(-c3nccc(-c4cccc(-c5ccc(CNC[C@@H]6CCC(=O)N6)c(OC)n5)c4Cl)c3Cl)cc(OC)c2C1` [Cmpd 150, methyl (S)-2-(6-(3-chloro-4-(2-chloro-3-(6-methoxy-5-((((5-oxopyrrolidin-2-yl)methyl)amino)methyl)pyridin-2-yl)phenyl)pyridin-2-yl)-8-methoxy-3,4-dihydroisoquinolin-2(1H)-yl)acetate], a half-maximal effect (EC50) was put at 0.127 µM.
